Read-outs that look alike come from different tables or passages of the source.
Experiments:
Test in all cases: Sensitivity test (agar dilution), clinical isolate
P. aeruginosa 13250 = type: cell-based, Pseudomonas aeruginosa
Procedure: (§1) In addition, the antibacterial activities were tested against strains which are comparatively less sensitive to β-lactam compounds, namely clinically isolated 13 strains of Acinetobacter calcoaceticus and Acinetobacter lwoffi, clinically isolated 11 strains of Serratia marcescens, clinically isolated 12 strains of Burkholderia cepacia, and clinically isolated 15 strains of Pseudomonas aeruginosa.
(§2) According to the standard method of Japan Chemotherapeutic Society (Chemotherapy, vol. […], p 76-79 (1981)) the test was carried out using the agar dilution method. After dissolving test samples in distilled water, agar medium containing the test samples was prepared in such a manner that the final concentration became twice serial dilution by pouring serially diluted combination drug solution or a single drug solution into agar medium. As agar medium was used Mueller Hinton Agar medium (MHA). Then, each strain was cultivated over night at 37° C. in an incubator and suspended in buffered saline solution with gelatin (BSG) in the concentration of about 10^6 CFU/ml. The suspension (about 5 μl) containing test strains was inoculated to the medium containing the test samples by Micro Planter.
(§3) Each drug was weighed, and dissolved in distilled water to give a test sample. When the drugs are used in combination, two kinds of solution containing each drug were mixed so as to be various ratio of concentration to give a mixed solution. When the sample is subjected to sensitivity test, this mixed solution was diluted by twice serial dilution method.
(§4) Furthermore, when the drug is solely used, each test sample was used as it is, and diluted by twice serial dilution method from the maximum concentration to the minimum concentration.

P. aeruginosa 15032 = type: cell-based, Pseudomonas aeruginosa
Procedure: as §1, §2, §3, §4

P. aeruginosa 13224 = type: cell-based, Pseudomonas aeruginosa
Procedure: as §1, §2, §3, §4

P. aeruginosa 13269 = type: cell-based, Pseudomonas aeruginosa
Procedure: as §1, §2, §3, §4

P. aeruginosa 15019 = type: cell-based, Pseudomonas aeruginosa
Procedure: as §1, §2, §3, §4

P. aeruginosa 15040 = type: cell-based, Pseudomonas aeruginosa
Procedure: as §1, §2, §3, §4

P. aeruginosa 12789 = type: cell-based, Pseudomonas aeruginosa
Procedure: as §1, §2, §3, §4

P. aeruginosa 15036 = type: cell-based, Pseudomonas aeruginosa
Procedure: as §1, §2, §3, §4

P. aeruginosa 13245 = type: cell-based, Pseudomonas aeruginosa
Procedure: as §1, §2, §3, §4

P. aeruginosa 13272 = type: cell-based, Pseudomonas aeruginosa
Procedure: as §1, §2, §3, §4

P. aeruginosa 13280 = type: cell-based, Pseudomonas aeruginosa
Procedure: as §1, §2, §3, §4

P. aeruginosa 13285 = type: cell-based, Pseudomonas aeruginosa
Procedure: as §1, §2, §3, §4

P. aeruginosa 15039 = type: cell-based, Pseudomonas aeruginosa
Procedure: as §1, §2, §3, §4

P. aeruginosa 13221 = type: cell-based, Pseudomonas aeruginosa
Procedure: as §1, §2, §3, §4

S. marcescens 1944950 = type: cell-based, Serratia marcescens
Procedure: as §1, §2, §3, §4

C[C@@H](O)[C@H]1C(=O)N2C(C(=O)O)=C(S[C@@H]3CN[C@H](C(=O)N(C)C)C3)[C@H](C)[C@H]12 [MEPM, meropenem]
MIC (P. aeruginosa 13250; Pseudomonas aeruginosa, 13250, Concomitant (ME:SM = 1:1)): 0.5 µg/mL | MIC (P. aeruginosa 13250; Pseudomonas aeruginosa, 13250, Concomitant (ME:SM = 1:2)): 0.25 µg/mL | MIC (P. aeruginosa 13250; Pseudomonas aeruginosa, 13250, Concomitant (ME:SM = 1:4)): 0.5 µg/mL | MIC (P. aeruginosa 13250; Pseudomonas aeruginosa, 13250, Concomitant (ME:SM = 2:1)): 0.5 µg/mL | MIC (P. aeruginosa 13250; Pseudomonas aeruginosa, 13250, alone): 0.5 µg/mL | MIC (P. aeruginosa 15032; Pseudomonas aeruginosa, 15032, Concomitant (ME:SM = 1:1)): 2 µg/mL | MIC (P. aeruginosa 15032; Pseudomonas aeruginosa, 15032, Concomitant (ME:SM = 1:2)): 1 µg/mL | MIC (P. aeruginosa 15032; Pseudomonas aeruginosa, 15032, Concomitant (ME:SM = 1:4)): 2 µg/mL | MIC (P. aeruginosa 15032; Pseudomonas aeruginosa, 15032, Concomitant (ME:SM = 2:1)): 2 µg/mL | MIC (P. aeruginosa 15032; Pseudomonas aeruginosa, 15032, alone): 2 µg/mL | MIC (P. aeruginosa 13224; Pseudomonas aeruginosa, 13224, Concomitant (ME:SM = 1:1)): 4 µg/mL | MIC (P. aeruginosa 13224; Pseudomonas aeruginosa, 13224, Concomitant (ME:SM = 1:2)): 2 µg/mL | MIC (P. aeruginosa 13224; Pseudomonas aeruginosa, 13224, Concomitant (ME:SM = 1:4)): 2 µg/mL | MIC (P. aeruginosa 13224; Pseudomonas aeruginosa, 13224, Concomitant (ME:SM = 2:1)): 4 µg/mL | MIC (P. aeruginosa 13224; Pseudomonas aeruginosa, 13224, alone): 4 µg/mL | MIC (P. aeruginosa 13269; Pseudomonas aeruginosa, 13269, Concomitant (ME:SM = 1:1)): 4 µg/mL | MIC (P. aeruginosa 13269; Pseudomonas aeruginosa, 13269, Concomitant (ME:SM = 1:2)): 2 µg/mL | MIC (P. aeruginosa 13269; Pseudomonas aeruginosa, 13269, Concomitant (ME:SM = 1:4)): 2 µg/mL | MIC (P. aeruginosa 13269; Pseudomonas aeruginosa, 13269, Concomitant (ME:SM = 2:1)): 4 µg/mL | MIC (P. aeruginosa 13269; Pseudomonas aeruginosa, 13269, alone): 4 µg/mL | MIC (P. aeruginosa 15019; Pseudomonas aeruginosa, 15019, Concomitant (ME:SM = 1:1)): 4 µg/mL | MIC (P. aeruginosa 15019; Pseudomonas aeruginosa, 15019, Concomitant (ME:SM = 1:2)): 4 µg/mL | MIC (P. aeruginosa 15019; Pseudomonas aeruginosa, 15019, Concomitant (ME:SM = 1:4)): 2 µg/mL | MIC (P. aeruginosa 15019; Pseudomonas aeruginosa, 15019, Concomitant (ME:SM = 2:1)): 4 µg/mL | MIC (P. aeruginosa 15019; Pseudomonas aeruginosa, 15019, alone): 4 µg/mL | MIC (P. aeruginosa 15040; Pseudomonas aeruginosa, 15040, Concomitant (ME:SM = 1:1)): 4 µg/mL | MIC (P. aeruginosa 15040; Pseudomonas aeruginosa, 15040, Concomitant (ME:SM = 1:2)): 2 µg/mL | MIC (P. aeruginosa 15040; Pseudomonas aeruginosa, 15040, Concomitant (ME:SM = 1:4)): 2 µg/mL | MIC (P. aeruginosa 15040; Pseudomonas aeruginosa, 15040, Concomitant (ME:SM = 2:1)): 4 µg/mL | MIC (P. aeruginosa 15040; Pseudomonas aeruginosa, 15040, alone): 4 µg/mL | MIC (P. aeruginosa 12789; Pseudomonas aeruginosa, 12789, Concomitant (ME:SM = 1:1)): 0.5 µg/mL | MIC (P. aeruginosa 12789; Pseudomonas aeruginosa, 12789, Concomitant (ME:SM = 1:2)): 0.5 µg/mL | MIC (P. aeruginosa 12789; Pseudomonas aeruginosa, 12789, Concomitant (ME:SM = 1:4)): 0.5 µg/mL | MIC (P. aeruginosa 12789; Pseudomonas aeruginosa, 12789, Concomitant (ME:SM = 2:1)): 0.5 µg/mL | MIC (P. aeruginosa 12789; Pseudomonas aeruginosa, 12789, alone): 0.5 µg/mL | MIC (P. aeruginosa 15036; Pseudomonas aeruginosa, 15036, Concomitant (ME:SM = 1:1)): 2 µg/mL | MIC (P. aeruginosa 15036; Pseudomonas aeruginosa, 15036, Concomitant (ME:SM = 1:2)): 1 µg/mL | MIC (P. aeruginosa 15036; Pseudomonas aeruginosa, 15036, Concomitant (ME:SM = 1:4)): 2 µg/mL | MIC (P. aeruginosa 15036; Pseudomonas aeruginosa, 15036, Concomitant (ME:SM = 2:1)): 2 µg/mL | MIC (P. aeruginosa 15036; Pseudomonas aeruginosa, 15036, alone): 2 µg/mL | MIC (P. aeruginosa 13245; Pseudomonas aeruginosa, 13245, Concomitant (ME:SM = 1:1)): 2 µg/mL | MIC (P. aeruginosa 13245; Pseudomonas aeruginosa, 13245, Concomitant (ME:SM = 1:2)): 1 µg/mL | MIC (P. aeruginosa 13245; Pseudomonas aeruginosa, 13245, Concomitant (ME:SM = 1:4)): 2 µg/mL | MIC (P. aeruginosa 13245; Pseudomonas aeruginosa, 13245, Concomitant (ME:SM = 2:1)): 2 µg/mL | MIC (P. aeruginosa 13245; Pseudomonas aeruginosa, 13245, alone): 2 µg/mL | MIC (P. aeruginosa 13272; Pseudomonas aeruginosa, 13272, Concomitant (ME:SM = 1:1)): 4 µg/mL | MIC (P. aeruginosa 13272; Pseudomonas aeruginosa, 13272, Concomitant (ME:SM = 1:2)): 2 µg/mL | MIC (P. aeruginosa 13272; Pseudomonas aeruginosa, 13272, Concomitant (ME:SM = 1:4)): 2 µg/mL | MIC (P. aeruginosa 13272; Pseudomonas aeruginosa, 13272, Concomitant (ME:SM = 2:1)): 4 µg/mL | MIC (P. aeruginosa 13272; Pseudomonas aeruginosa, 13272, alone): 4 µg/mL | MIC (P. aeruginosa 13280; Pseudomonas aeruginosa, 13280, Concomitant (ME:SM = 1:1)): 4 µg/mL | MIC (P. aeruginosa 13280; Pseudomonas aeruginosa, 13280, Concomitant (ME:SM = 1:2)): 4 µg/mL | MIC (P. aeruginosa 13280; Pseudomonas aeruginosa, 13280, Concomitant (ME:SM = 1:4)): 4 µg/mL | MIC (P. aeruginosa 13280; Pseudomonas aeruginosa, 13280, Concomitant (ME:SM = 2:1)): 8 µg/mL | MIC (P. aeruginosa 13280; Pseudomonas aeruginosa, 13280, alone): 8 µg/mL | MIC (P. aeruginosa 13285; Pseudomonas aeruginosa, 13285, Concomitant (ME:SM = 1:1)): 4 µg/mL | MIC (P. aeruginosa 13285; Pseudomonas aeruginosa, 13285, Concomitant (ME:SM = 1:2)): 4 µg/mL | MIC (P. aeruginosa 13285; Pseudomonas aeruginosa, 13285, Concomitant (ME:SM = 1:4)): 4 µg/mL | MIC (P. aeruginosa 13285; Pseudomonas aeruginosa, 13285, Concomitant (ME:SM = 2:1)): 4 µg/mL | MIC (P. aeruginosa 13285; Pseudomonas aeruginosa, 13285, alone): 4 µg/mL | MIC (P. aeruginosa 15039; Pseudomonas aeruginosa, 15039, Concomitant (ME:SM = 1:1)): 8 µg/mL | MIC (P. aeruginosa 15039; Pseudomonas aeruginosa, 15039, Concomitant (ME:SM = 1:2)): 8 µg/mL | MIC (P. aeruginosa 15039; Pseudomonas aeruginosa, 15039, Concomitant (ME:SM = 1:4)): 4 µg/mL | MIC (P. aeruginosa 15039; Pseudomonas aeruginosa, 15039, Concomitant (ME:SM = 2:1)): 8 µg/mL | MIC (P. aeruginosa 15039; Pseudomonas aeruginosa, 15039, alone): 8 µg/mL | MIC (P. aeruginosa 13221; Concomitant (ME:SM = 1:1)): 0.125 µg/mL | MIC (P. aeruginosa 13221; Concomitant (ME:SM = 1:2)): 0.125 µg/mL | MIC (P. aeruginosa 13221; Pseudomonas aeruginosa, 13221): 0.125 µg/mL | MIC (P. aeruginosa 13221; Pseudomonas aeruginosa, 13221, Concomitant (ME:SM = 1:4), read-out: MIC): 0.063 µg/mL | MIC (P. aeruginosa 13221; Pseudomonas aeruginosa, 13221, Concomitant (ME:SM = 2:1), read-out: MIC): 0.063 µg/mL | MIC (S. marcescens 1944950; Serratia marcescens, 1944950, Concomitant (ME:SM = 1:1)): 8 µg/mL | MIC (S. marcescens 1944950; Serratia marcescens, 1944950, Concomitant (ME:SM = 1:2)): 4 µg/mL | MIC (S. marcescens 1944950; Serratia marcescens, 1944950, Concomitant (ME:SM = 1:4)): 4 µg/mL | MIC (S. marcescens 1944950; Serratia marcescens, 1944950, Concomitant (ME:SM = 2:1)): 8 µg/mL | MIC (S. marcescens 1944950; Serratia marcescens, 1944950, alone): 8 µg/mL
